Measured values reported in patent US10806790B1, “Pain therapy cream with deep tissue delivery system” (priority 2013, dated 2020).

Assays:
[1] = tested on: symptoms of primary osteoarthritis (OA) of the knee; assay: 12-week randomized, double-blind, double-dummy, parallel-group comparative study; WOMAC osteoarthritis index (VAS) efficacy; type: in vivo, patients (men and nonpregnant women)
Description: (§1) The purpose of this study was to compare the safety and efficacy of a topical cream (CellMedics®) containing 0.075% w/w capsaicin and 5% w/w Harpagophytum extract vs. oral diclofenac 50 mg tablets over a 12-week treatment course in relieving the symptoms of primary osteoarthritis (OA) of the knee, in a randomized, double-blind, double-dummy, parallel-group study. Eligible patients included men and nonpregnant women between the ages of 45-75 with symptomatic OA of the knee of at least three months duration. All patients had knee OA as defined by the American College of Rheumatology global functional class I, II, or III. […] Concomitant use of other analgesic medications was prohibited during the study. The protocol was a 12-week, randomized, double-blind, double-dummy, parallel-group comparative study. Patients were assessed at the initial screening visit and those who met the entry criteria discontinued NSAID treatment for a washout period of 3-10 days before the baseline visit. Following the screening and washout periods, each eligible patient attending the baseline visit was assigned a numbered study kit at the clinic. Study kits contained one of 2 randomly assigned treatments: (1) vehicle cream (CellMedics®) containing 0.075% w/w capsaicin and 5% w/w Harpagophytum extract (topical Harpagophytum) plus oral placebo tablet; or (2) diclofenac 50 mg tablet (oral diclofenac) plus a topical placebo cream (vehicle cream with no actives). Patients were instructed to apply a single 3 g measured dose of cream (150 mg of Harpagophytum and 2.25 mg of capsaicin in the active cream) from a metered pump dispenser around the affected knee and take a study tablet orally, 3 times daily for 12 weeks. […] The WOMAC osteoarthritis index, version 3.1 visual analog scale (VAS) was used to assess response to treatment at baseline and after week 12. Patients answered the WOMAC subscales of pain, stiffness, and physical function using a 48 hour recall period. For WOMAC, the VA scales were (best) 0-100 (worst). Safety analyses were conducted on all patients randomized into the trial. At week 12 visits, adverse events (AE) were recorded. The differences between baseline and week 12 were used to analyze changes in WOMAC scores. Statistical significance was assumed at p<0.05. The effect size was calculated by dividing the mean change from baseline with the standard deviation at baseline. Percent improvement was calculated by dividing week 12 change scores by baseline scores.

[2] = tested on: patients with primary osteoarthritis (OA) of the knee; assay: Same 12-week study; safety analysis, incidence of drug-related adverse events
Description: as §1

[3] = mean change from baseline divided by the standard deviation at baseline, week 12
[4] = mean, WOMAC VA scale (best) 0-100 (worst), 12 weeks, 3 times daily, n = 36
[5] = week 12 change score divided by baseline score
[6] = both, human, in vivo, po, 12 weeks

O=C(O)Cc1ccccc1Nc1c(Cl)cccc1Cl [Oral Diclofenac, diclofenac]
WOMAC Pain, Effect size [1, 3]: 1.04
WOMAC Physical Function, Effect size [1, 3]: 0.99
WOMAC Stiffness, Effect size [1, 3]: 0.90
WOMAC Pain, Baseline - week 12 change score [1, 4]: −22.87
WOMAC Physical Function, Baseline - week 12 change score [1, 4]: −21.87
WOMAC Stiffness, Baseline - week 12 change score [1, 4]: −21.65
WOMAC Pain, % Improvement [1, 5]: 48.77%
WOMAC Physical function, % Improvement [1, 5]: 45.91%
WOMAC Stiffness, % Improvement [1, 5]: 44.86%
Erythema (application site adverse event), number of patients ([2]; 12 weeks, n = 36, oral diclofenac group used placebo cream): One
severity of dry skin at application site ([2]; all cases): mild and transient
Abdominal pain (GI adverse event), number of patients ([2]; both, human, in vivo, 12 weeks): 8
Constipation (GI adverse event), incidence ([2]; both, human, in vivo, 12 weeks): (8.3%)
Constipation (GI adverse event), number of patients ([2]; both, human, in vivo, 12 weeks): 3
Diarrhea (GI adverse event), incidence ([2]; both, human, in vivo, 12 weeks): (16.7%)
Diarrhea (GI adverse event), number of patients ([2]; both, human, in vivo, 12 weeks): 6
Dyspepsia (GI adverse event), incidence ([2]; both, human, in vivo, 12 weeks): (25.0%)
Dyspepsia (GI adverse event), number of patients ([2]; both, human, in vivo, 12 weeks): 9
Edema (other adverse event), number of patients ([2]; both, human, in vivo, 12 weeks): 3
Flatulence (GI adverse event), incidence ([2]; both, human, in vivo, 12 weeks): (16.7%)
Flatulence (GI adverse event), number of patients ([2]; both, human, in vivo, 12 weeks): 6
Headache (other adverse event), number of patients ([2]; both, human, in vivo, 12 weeks): 2
Nausea (GI adverse event), incidence ([2]; both, human, in vivo, 12 weeks): (11.1%)
Nausea (GI adverse event), number of patients ([2]; both, human, in vivo, 12 weeks): 4
time to resolution of mild redness (erythema) ([2]; both, human, in vivo, 12 weeks): ≤ 24 h
Blisters (application site adverse event), incidence [2, 6]: (0.0%)
Blisters (application site adverse event), number of patients [2, 6]: 0
Dry Skin (application site adverse event), number of patients [2, 6]: 1
Erythema (application site adverse event), number of patients [2, 6]: 1
Pruritis (application site adverse event), incidence [2, 6]: (0.0%)
Pruritis (application site adverse event), number of patients [2, 6]: 0
